According to US12257237B2 (priority 2017, dated 2025):
Values joined by “and” are separate entries in the source; they are usually repeats but may differ in a detail not shown here. Identical values can stand only once.

Columns and labels:
[1] = Drug tolerability (body weight) in TC-71 Ewing sarcoma xenograft model; format: in vivo, Athymic nude mice; details: Irinotecan 50 mg/kg; for BWL %: negative = loss vs day 9
Method: (§1) Experiments were performed with female Athymic nude mice, 9-10 weeks old obtained from Harlan Laboratories (Udine, Italy). They were maintained under Specific Pathogen Free conditions with constant temperature and humidity, according to the institutional guidelines.
(§2) Tumour growth mice was monitored two/three times a week (depending on tumour growth rate, to avoid unnecessary stress to the animals) by Vernier caliper. Mice were sacrificed when tumour reached a mean weight of 2±0.5 gr. The antitumour activity will be expressed as T/C %, where T and C were the mean tumour weight of treated and control groups, respectively. Mice were monitored daily and weighted at least two times a week. Tolerability was evaluated on the basis of body weight loss (BWL) and clinical observation.

[2] = tested on: TC-71 Ewing sarcoma; assay: Antitumour activity in TC-71 Ewing sarcoma xenograft model; format: in vivo, Athymic nude mice
Method: as §1, §2
Statistical analysis was performed with GraphPad Prism version 6.01 software (GraphPad software, Inc., La Jolla, CA, USA). ANOVA test was performed to evaluate if there were statistically significant differences between treated and control groups.
5×10^6 TC-71 cells were inoculated subcutaneously in the right flank of mice. The growing tumour masses were measured with the aid of a Vernier caliper, and the tumour weights (1 mm^3=1 mg) were calculated by the formula: length×(width) 2/2. When tumour load achieved about 100 mg, mice were randomized into the experimental groups and treatment started.

[3] = day 9 from tumour inoculum (treatment start)
[4] = 50 mg/kg i.v. q7dx3, day 9 from inoculum
[5] = 50 mg/kg i.v. q7dx3, day 11 from inoculum
[6] = 50 mg/kg i.v. q7dx3, day 14 from inoculum
[7] = 50 mg/kg i.v. q7dx3, day 16 from inoculum
[8] = 50 mg/kg i.v. q7dx3, day 18 from inoculum
[9] = 50 mg/kg i.v. q7dx3, day 21 from inoculum
[10] = 50 mg/kg i.v. q7dx3, day 23 from inoculum
[11] = 50 mg/kg i.v. q7dx3, day 25 from inoculum
[12] = 50 mg/kg i.v. q7dx3, day 28 from inoculum
[13] = 50 mg/kg i.v. q7dx3, day 30 from inoculum
[14] = 50 mg/kg i.v. q7dx3, day 32 from inoculum
[15] = 50 mg/kg i.v. q7dx3, day 35 from inoculum
[16] = 50 mg/kg i.v. q7dx3, day 38 from inoculum
[17] = 50 mg/kg i.v. q7dx3, day 42 from inoculum
[18] = 50 mg/kg i.v. q7dx3, day 45 from inoculum
[19] = 50 mg/kg i.v. q7dx3, day 49 from inoculum
[20] = 50 mg/kg i.v. q7dx3, day 53 from inoculum

CCc1c2c(nc3ccc(OC(=O)N4CCC(N5CCCCC5)CC4)cc13)-c1cc3c(c(=O)n1C2)COC(=O)[C@]3(O)CC [Irinotecan, reference compound]
Mouse body weight, group Mean [1, 3]: 27.4 g | BWL % [1, 3]: 0.0% | Mouse body weight, group Mean ([1]; day 10 from tumour inoculum): 25.8 g | BWL % ([1]; day 10 from tumour inoculum): −6.1% | Mouse body weight, group Mean ([1]; day 11 from tumour inoculum): 25.6 g | BWL % ([1]; day 11 from tumour inoculum): −6.6% | Mouse body weight, group Mean ([1]; day 14 from tumour inoculum): 26.9 g | BWL % ([1]; day 14 from tumour inoculum): −1.9% | Mouse body weight, group Mean ([1]; day 16 from tumour inoculum): 27.0 g | BWL % ([1]; day 16 from tumour inoculum): −1.7% | Mouse body weight, group Mean ([1]; day 18 from tumour inoculum): 26.0 g | BWL % ([1]; day 18 from tumour inoculum): −5.3% | Mouse body weight, group Mean ([1]; day 21 from tumour inoculum): 26.2 g | BWL % ([1]; day 21 from tumour inoculum): −4.3% | Mouse body weight, group Mean ([1]; day 23 from tumour inoculum): 26.5 g | BWL % ([1]; day 23 from tumour inoculum): −3.5% | Mouse body weight, group Mean ([1]; day 25 from tumour inoculum): 25.4 g | BWL % ([1]; day 25 from tumour inoculum): −7.5% | Mouse body weight, group Mean ([1]; day 28 from tumour inoculum): 26.4 g | BWL % ([1]; day 28 from tumour inoculum): −3.9% | Mouse body weight, group Mean ([1]; day 30 from tumour inoculum): 27.1 g | BWL % ([1]; day 30 from tumour inoculum): −1.1% | Mouse body weight, group Mean ([1]; day 32 from tumour inoculum): 27.0 g | BWL % ([1]; day 32 from tumour inoculum): −1.6% | Mouse body weight, group Mean ([1]; day 35 from tumour inoculum): 27.9 g | BWL % ([1]; day 35 from tumour inoculum): 1.7% | Mouse body weight, group Mean ([1]; day 38 from tumour inoculum): 27.2 g | BWL % ([1]; day 38 from tumour inoculum): −0.7% | Mouse body weight, group Mean ([1]; day 42 from tumour inoculum): 28.4 g | BWL % ([1]; day 42 from tumour inoculum): 3.5% | Mouse body weight, group Mean ([1]; day 46 from tumour inoculum): 27.8 g | BWL % ([1]; day 46 from tumour inoculum): 1.5% | Mouse body weight, group Mean ([1]; day 49 from tumour inoculum): 28.4 g | BWL % ([1]; day 49 from tumour inoculum): 3.6% | Mouse body weight, group Mean ([1]; day 53 from tumour inoculum): 28.1 g | BWL % ([1]; day 53 from tumour inoculum): 2.3% | TC-71 tumour weight, individual mice [2, 4]: 316.8 mg and 124.6 mg and 103.5 mg and 88.1 mg | TC-71 tumour weight, mean [2, 4]: 106.4 mg | TC-71 tumour weight, individual mice [2, 5]: 90.6 mg and 45.7 mg and 63.3 mg | TC-71 tumour weight, mean [2, 5]: 76.4 mg | TC-71 tumour weight, individual mice [2, 6]: 87.8 mg and 16.6 mg and 9.9 mg and 17.1 mg | TC-71 tumour weight, mean [2, 6]: 22.6 mg | TC-71 tumour weight, individual mice [2, 7]: 99.6 mg and 41.5 mg and 23.8 mg and 72.8 mg | TC-71 tumour weight, mean [2, 7]: 35.0 mg | TC-71 tumour weight, individual mice [2, 8]: 44.2 mg and 11.3 mg and 8.8 mg and 28.1 mg | TC-71 tumour weight, mean [2, 8]: 14.8 mg | optimal T/C ([2]; 50 mg/kg i.v. q7dx3, day 21): 0.4% | TC-71 tumour weight, individual mice [2, 9]: 9.6 mg and 2.4 mg and 6.1 mg and 7.5 mg | TC-71 tumour weight, mean [2, 9]: 6.1 mg | TC-71 tumour weight, individual mice [2, 10]: 1.7 mg and 5.4 mg | TC-71 tumour weight, mean [2, 10]: 7.0 mg | TC-71 tumour weight, individual mice [2, 11]: 9.9 mg and 3.3 mg | TC-71 tumour weight, mean [2, 11]: 5.9 mg | TC-71 tumour weight, individual mice [2, 12]: 6.8 mg and 1.5 mg and 3.3 mg and 2.5 mg | TC-71 tumour weight, mean [2, 12]: 3.5 mg | TC-71 tumour weight, individual mice [2, 13]: 15.4 mg and 2.7 mg and 3.8 mg and 2.6 mg | TC-71 tumour weight, mean [2, 13]: 6.1 mg | TC-71 tumour weight, individual mice [2, 14]: 83.7 mg and 8.2 mg and 12.1 mg and 9.2 mg | TC-71 tumour weight, mean [2, 14]: 28.3 mg | TC-71 tumour weight, individual mice [2, 15]: 223.4 mg and 42.7 mg and 36.0 mg and 53.8 mg | TC-71 tumour weight, mean [2, 15]: 88.9 mg | TC-71 tumour weight, individual mice [2, 16]: 713.8 mg and 105.6 mg and 74.5 mg and 145.5 mg | TC-71 tumour weight, mean [2, 16]: 259.8 mg | TC-71 tumour weight, individual mice [2, 17]: 2687.8 mg and 327.2 mg and 346.6 mg and 199.0 mg | TC-71 tumour weight, mean [2, 17]: 890.2 mg | TC-71 tumour weight, individual mice [2, 18]: 2443.2 mg and 627.6 mg and 589.7 mg and 305.0 mg | TC-71 tumour weight, mean [2, 18]: 991.4 mg | TC-71 tumour weight, individual mice [2, 19]: 2887.4 mg and 1184.6 mg and 1244.3 mg and 316.1 mg | TC-71 tumour weight, mean [2, 19]: 1408.1 mg | TC-71 tumour weight, individual mice [2, 20]: 3331.8 mg and 1062.6 mg and 2135.1 mg and 308.0 mg | TC-71 tumour weight, mean [2, 20]: 1709.4 mg | mice exhibiting sustained CR up to the conclusion of the experiment ([2]; 50 mg/kg q7dx3): 4 mice | tumour regression ([2]; 50 mg/kg q7dx3): tumour regression in all mice
